Measured values published in patent US12384770B2, “Heterocyclic compound” (Takeda Pharmaceutical Company Limited, priority 2019, dated 2025).

Biological target: T1, HDAC6 enzyme (Homo sapiens, UniProt Q9UBN7)
T1 construct: HDAC6 enzyme prepared by transducing full length HDAC6 gene into Sf-9 insect cells; GST; purchased SignalChem; host or cells: Sf-9 insect cells
T1 sequence (Q9UBN7 1-1215): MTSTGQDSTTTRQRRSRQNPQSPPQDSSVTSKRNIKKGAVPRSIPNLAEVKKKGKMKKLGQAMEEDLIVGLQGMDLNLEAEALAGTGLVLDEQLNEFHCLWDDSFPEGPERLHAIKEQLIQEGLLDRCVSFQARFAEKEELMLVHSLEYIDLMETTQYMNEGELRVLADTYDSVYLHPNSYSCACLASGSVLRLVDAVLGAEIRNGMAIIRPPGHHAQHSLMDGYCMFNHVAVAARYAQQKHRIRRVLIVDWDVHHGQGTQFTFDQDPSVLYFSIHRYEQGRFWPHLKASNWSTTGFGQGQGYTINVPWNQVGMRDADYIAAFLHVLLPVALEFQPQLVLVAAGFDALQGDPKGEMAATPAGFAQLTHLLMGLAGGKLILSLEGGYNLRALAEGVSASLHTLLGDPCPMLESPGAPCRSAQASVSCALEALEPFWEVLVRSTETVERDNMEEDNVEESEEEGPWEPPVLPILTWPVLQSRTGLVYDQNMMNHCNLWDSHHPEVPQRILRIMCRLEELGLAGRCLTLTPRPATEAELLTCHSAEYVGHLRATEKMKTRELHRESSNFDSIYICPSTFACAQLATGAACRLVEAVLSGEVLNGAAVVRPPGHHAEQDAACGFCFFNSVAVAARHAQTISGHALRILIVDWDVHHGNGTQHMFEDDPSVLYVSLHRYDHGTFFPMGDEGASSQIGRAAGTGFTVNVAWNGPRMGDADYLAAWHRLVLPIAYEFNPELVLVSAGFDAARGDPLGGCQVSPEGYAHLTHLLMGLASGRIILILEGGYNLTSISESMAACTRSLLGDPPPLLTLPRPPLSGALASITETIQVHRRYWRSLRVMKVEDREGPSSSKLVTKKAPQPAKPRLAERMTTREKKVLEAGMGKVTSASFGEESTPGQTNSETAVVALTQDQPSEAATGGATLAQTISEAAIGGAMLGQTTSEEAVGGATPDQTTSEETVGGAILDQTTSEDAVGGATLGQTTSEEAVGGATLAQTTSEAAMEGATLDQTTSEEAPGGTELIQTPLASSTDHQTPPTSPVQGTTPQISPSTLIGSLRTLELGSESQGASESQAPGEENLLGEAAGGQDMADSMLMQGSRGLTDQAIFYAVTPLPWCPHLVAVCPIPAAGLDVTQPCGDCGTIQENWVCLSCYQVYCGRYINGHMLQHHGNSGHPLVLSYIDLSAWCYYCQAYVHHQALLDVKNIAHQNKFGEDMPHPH
Test: HDAC6 enzyme inhibitory assay (HDAC-Glo I/II Assay kit)
Format: biochemical
Settings: wells without enzyme = 100% inhibition; for inhibition at 10 µM: read-out: HDAC6 inhibitory rate (%) (10 μM)
Description: Experimental Example 1 HDAC6 Enzyme Inhibitory Assay
HDAC6 enzyme prepared by transducing full length HDAC6 gene into Sf-9 insect cells and purifying by GST affinity column were purchased from SignalChem. Using this enzyme, HDAC6 enzyme inhibitory activity of the compound of the present invention were evaluated. Enzymes were used after preserved at −70° C. HDAC6 enzyme inhibitory activity of the compound of the present invention was measured using HDAC-Glo™ I/II Assay kit (Promega) according to the following experimental method. The test compound diluted with assay buffer (24 mM Tris-HCl (pH 7.5), 1 mM MgCl2, 0.35 mM KCl, 135 mM NaCl, 0.6 mM Glutathione, 0.01% Tween-20) was added to a 384-well plate by each 2 μL. Then, HDAC6 enzyme solution diluted with assay buffer was added thereto by each 4 μL, and the plate was incubated at room temperature for 60 min. After incubated, HDAC substrate-Developer solution prepared according to Promega protocol attached to the assay kit was added to the 384-well plate by each 2 μL, and the enzyme reaction was started. After reacting at room temperature for 20 min, luminescence level was measured using plate reader Envision (PerkinElmer). The inhibitory activity of each compound of Example was calculated as a relative activity value when luminescence level in wells without enzyme is considered as 100% inhibition.

| Compound | inhibition at 10 µM | HDAC6 inhibitory rate (%) (10 μM) |
| --- | --- | --- |
| O=C1c2cc(-c3nnc(C(F)F)o3)ccc2CN1[C@H](c1ccccn1)[C@@H](O)c1cccc(F)n1 [Example 7, 6-[5-(difluoromethyl)-1,3,4-oxadiazol-2-yl]-2-[(1R,2R)-2-(6-fluoropyridin-2-yl)-2-hydroxy-1-(pyridin-2-yl)ethyl]-2,3-dihydro-1H-isoindol-1-one] | 102% |  |
| O=C1c2cc(-c3nnc(C(F)F)o3)ccc2CN1[C@H](c1ccccc1)[C@@H](O)c1ccccn1 (single isomer, unassigned) [Example 47, 6-[5-(difluoromethyl)-1,3,4-oxadiazol-2-yl]-2-[(1R*,2R*)-2-hydroxy-1-phenyl-2-(pyridin-2-yl)ethyl]-2,3-dihydro-1H-isoindol-1-one] | 99% |  |
| O=C1c2cc(-c3nnc(C(F)F)o3)ccc2CN1[C@H](c1cccnn1)[C@@H](O)c1ccc(Cl)cc1 (relative stereo) [Example 110, 2-[(1R*,2S)-2-(4-chlorophenyl)-2-hydroxy-1-(pyridazin-3-yl)ethyl]-6-[5-(difluoromethyl)-1,3,4-oxadiazol-2-yl]-2,3-dihydro-1H-isoindol-1-one] | 100% |  |
| O=C1c2cc(-c3nnc(C(F)F)o3)ccc2CN1[C@H](c1ccc(F)cc1)[C@H](O)c1ccc(C(F)(F)F)nc1 (racemic) [Example 142, 6-[5-(difluoromethyl)-1,3,4-oxadiazol-2-yl]-2-{(1RS,2RS)-1-(4-fluorophenyl)-2-hydroxy-2-[6-(trifluoromethyl)pyridin-3-yl]ethyl}-2,3-dihydro-1H-isoindol-1-one] | 100% |  |
| O=C1c2cc(-c3nnc(C(F)F)o3)ccc2CN1[C@H](c1ccc(F)cc1)[C@@H](O)c1ccc(C(F)(F)F)nc1 (single isomer, unassigned) [Example 54, 6-[5-(difluoromethyl)-1,3,4-oxadiazol-2-yl]-2-{(1R*,2S*)-1-(4-fluorophenyl)-2-hydroxy-2-[6-(trifluoromethyl)pyridin-3-yl]ethyl}-2,3-dihydro-1H-isoindol-1-one] | 100% |  |
| O=C1c2cc(-c3nnc(C(F)F)o3)ccc2CN1[C@H](c1ncccn1)[C@@H](O)c1cccc(F)c1 (single isomer, unassigned) [Example 68, 6-[5-(difluoromethyl)-1,3,4-oxadiazol-2-yl]-2-[(1R*,2S*)-2-(3-fluorophenyl)-2-hydroxy-1-(pyrimidin-2-yl)ethyl]-2,3-dihydro-1H-isoindol-1-one] | 101% |  |
| O=C1c2cc(-c3nnc(C(F)F)o3)ccc2CN1[C@@H](c1ccccn1)[C@@H](O)c1cccc(F)c1 (racemic) [Example 145, 6-[5-(difluoromethyl)-1,3,4-oxadiazol-2-yl]-2-[(1SR,2SR)-2-(3-fluorophenyl)-2-hydroxy-1-(pyridin-2-yl)ethyl]-2,3-dihydro-1H-isoindol-1-one] | 99% |  |
| O=C1c2cc(-c3nnc(C(F)F)o3)ccc2CN1[C@@H](c1ccc(F)cc1F)[C@@H](O)c1ccc(F)cc1 (racemic) [Example 146, 6-[5-(difluoromethyl)-1,3,4-oxadiazol-2-yl]-2-[(1SR,2SR)-1-(2,4-difluoro-phenyl)-2-(4-fluorophenyl)-2-hydroxy-ethyl]-2,3-dihydro-1H-isoindol-1-one] | 95% |  |
| O=C1c2cc(-c3nnc(C(F)F)o3)ccc2CN1[C@H](c1cccnn1)[C@@H](O)c1cccc(Cl)c1 (single isomer, unassigned) [Example 122, 2-[(1R*,2S*)-2-(3-chlorophenyl)-2-hydroxy-1-(pyridazin-3-yl)ethyl]-6-[5-(difluoromethyl)-1,3,4-oxadiazol-2-yl]-2,3-dihydro-1H-isoindol-1-one] | 100% |  |
| O=C1c2cc(-c3nnc(C(F)F)o3)ccc2CN1[C@H](c1ccc(F)c(F)c1)[C@@H](O)c1ccccn1 (single isomer, unassigned) [Example 51, 6-[5-(difluoromethyl)-1,3,4-oxadiazol-2-yl]-2-[(1R*,2R*)-1-(3,4-difluorophenyl)-2-hydroxy-2-(pyridin-2-yl)ethyl]-2,3-dihydro-1H-isoindol-1-one] |  | 99% |
| Cn1cc([C@H]([C@@H](O)c2ccccc2)N2Cc3ccc(-c4nnc(C(F)F)o4)cc3C2=O)cn1 (racemic) [Example 42, 6-[5-(difluoromethyl)-1,3,4-oxadiazol-2-yl]-2-[(1RS,2SR)-2-hydroxy-1-(1-methyl-1H-pyrazol-4-yl)-2-phenylethyl]-2,3-dihydro-1H-isoindol-1-one] | 100% |  |
| O=C1c2cc(-c3nnc(C(F)F)o3)ccc2CN1[C@H](c1ncccn1)[C@@H](O)c1ccc(F)c(F)c1 (single isomer, unassigned) [Example 94, 6-[5-(difluoromethyl)-1,3,4-oxadiazol-2-yl]-2-[(1R*,2S*)-2-(3,4-difluorophenyl)-2-hydroxy-1-(pyrimidin-2-yl)ethyl]-2,3-dihydro-1H-isoindol-1-one] | 100% |  |

Next, values leading:

| inhibition at 10 µM | HDAC6 inhibitory rate (%) (10 μM) | Compound |
| --- | --- | --- |
| 101% |  | O=C1c2cc(-c3nnc(C(F)F)o3)ccc2CN1[C@H](C1CCOCC1)[C@H](O)c1ccc(F)cc1 [Example 148, 6-[5-(difluoromethyl)-1,3,4-oxadiazol-2-yl]-2-[(1R,2R)-2-(4-fluorophenyl)-2-hydroxy-1-(oxan-4-yl)ethyl]-2,3-dihydro-1H-isoindol-1-one] |
|  | 99% | O=C1c2cc(-c3nnc(C(F)F)o3)ccc2CN1[C@H](c1ccc(F)cc1)[C@@H](O)c1ccc(F)nc1 (single isomer, unassigned) [Example 132, 6-[5-(difluoromethyl)-1,3,4-oxadiazol-2-yl]-2-[(1R*,2S*)-1-(4-fluorophenyl)-2-(6-fluoropyridin-3-yl)-2-hydroxyethyl]-2,3-dihydro-1H-isoindol-1-one] |
| 101% |  | O=C1c2cc(-c3nnc(C(F)F)o3)ccc2CN1[C@H](c1ncccn1)[C@@H](O)c1ccc(F)cc1 (racemic) [Example 134, 6-[5-(difluoromethyl)-1,3,4-oxadiazol-2-yl]-2-[(1RS,2SR)-2-(4-fluorophenyl)-2-hydroxy-1-(pyrimidin-2-yl)ethyl]-2,3-dihydro-1H-isoindol-1-one] |
| 100% |  | O=C1c2cc(-c3nnc(C(F)F)o3)ccc2CN1[C@H](C1CCOCC1)[C@@H](O)c1ccc(F)cc1 [Example 72, 6-[5-(difluoromethyl)-1,3,4-oxadiazol-2-yl]-2-[(1R,2S)-2-(4-fluorophenyl)-2-hydroxy-1-(oxan-4-yl)ethyl]-2,3-dihydro-1H-isoindol-1-one] |
| 101% |  | O=C1c2cc(-c3nnc(C(F)F)o3)ccc2CN1[C@H](c1cccc(F)n1)[C@@H](O)c1ccc(F)cn1 (relative stereo) [Example 125, 6-[5-(difluoromethyl)-1,3,4-oxadiazol-2-yl]-2-[(1R*,2R)-2-(5-fluoropyridin-2-yl)-1-(6-fluoropyridin-2-yl)-2-hydroxyethyl]-2,3-dihydro-1H-isoindol-1-one] |
| 100% |  | O=C1c2cc(-c3nnc(C(F)F)o3)ccc2CN1[C@H](C1CC1)[C@@H](O)c1ccc(F)cn1 [Example 57, 2-[(1R,2R)-1-cyclopropyl-2-(5-fluoropyridin-2-yl)-2-hydroxyethyl]-6-[5-(difluoromethyl)-1,3,4-oxadiazol-2-yl]-2,3-dihydro-1H-isoindol-1-one] |
